Values quoted from earlier work as cited in patent EP2871189A1, “High-affinity monoclonal anti-strep-tag antibody” (INSTITUT PASTEUR, priority 2013, dated 2015).

Target: Strep-Tactin
Conditions: individual binding site (monovalent interaction) on Strep-Tactin; Schmidt TG et al, J.Mol. Biol. 1996; read-out: dissociation constant

## Strep-tag II peptide: peptide tag of minimal sequence WSHPQFEK (SEQ ID NO:9) that binds streptavidin / Strep-Tactin
  Kd: ~1000 nM
